Assay results taken from article PMC11696576, “Next generation thiazolyl ketone inhibitors of cytosolic phospholipase A2 α for targeted cancer therapy” (Nature Communications, 2025).
Values joined by “and” are separate entries in the source; they are usually repeats but may differ in a detail not shown here. Equal entries are not always repeated. Where two headings read alike, the source gives them in different places.

Test system: panel of 66 cancer cell lines
Test: cancer cell line screen, proliferation assay (ATPlite, 72 h)
Format: cell-based, human
Conditions: for IC50: Homo sapiens, read-out: IC50; for raw signal, dose-response (Figure S7a): rep1, rep2, listed as AVX420
Source text: Targeting specific molecular vulnerabilities in cancer is considered a key approach to reducing the adverse effects of chemotherapy. However, the events that govern the susceptibility to suppression of the cPLA2α in cancer remain largely unexplored. We therefore took the approach of screening the antiproliferative activity of AVX420 in a panel of 66 cancer cell lines (hereafter referred to as the cancer cell line screen or CCLS) to allow us to investigate molecular and genetic vulnerabilities to the drug.
Screening of compound activities in 66 cancer cell lines was carried out at the Netherlands Translation Research Center. Briefly, proliferation assays were performed 72 h after compound addition using ATPlite 1step reagent (Perkin Elmer). IC50s calculated by non-linear regression analysis were used as a measure of compound activity for investigating associations with genetic factors. A complete description of the laboratory and data analysis methods are available in the Supplementary Information file (Supplemental Methods: Cancer Cell Line Screening).
Cancer cell line screening
Cell proliferation assays
All cell lines were from the American Type Culture Collection (ATCC) Manassas, Virginia (US) and maintained under ATCC-recommended protocols and within 9 pas- […]
DMSO at -80°C until one hour before use. Cells exposed within one hour after thaw-ing of the compound stocks. Final compound concentration range in the assay was 10 […]
cated by supplier. Compounds were dissolved in 100 % DMSO and stored at room temperature. Final concentration of the reference compounds in the assay was 3.16x10-5 M to 3.16x10-9 M. The final DMSO concentration during incubation was […]
Cell lines were plated in Advanced RPMI 1640 (Gibco, ref 12633-012) cell culture medium, containing 1% Glutamax solution (Gibco, ref 35050-038), 0.4% Pen Strep solution (Gibco, ref 15140-122) and bovine serum. The cPLA2α inhibitors were tested in 0.5% bovine serum (HyClone, ref SH30072.03) with the exception of769-P, A-204, BT-549, SR, T98G, which were tested in the presence of 1.0% serum and A-704 and LNCaP FGS, which were tested in the in the presence of 10% serum. Reference com-pounds were all tested in the presence of 10% bovine serum.
Cells were dispensed in a 384-well plate, at a concentration of 200 - 3200 cells per well, depending on the cell line, in 45 μL medium. Plated cells were incubated in a humidified atmosphere of 5% CO2 at 37 °C. After 24 hours, 5 μL of compound dilu-tion was added and plates were further incubated for another 72 hours. After 72 hours, 25 μL of ATPlite 1Step™ (PerkinElmer) solution was added to each well, and subse-quently shaken for 2 minutes. After 10 minutes of incubation in the dark, the lumines-cence was recorded on an Envision multimode reader (PerkinElmer).
Cell growth control. The cellular doubling times of all cell lines are calculated from the t = 0 hours and t = 72 hours growth signals of the untreated cells. If the doubling time is out of specification (0.5 – 2.0 times deviating from historic average) the assay […]
IC50s were calculated by non-linear regression using IDBS XLfit 5. The percentage growth after 72h (%-growth) was calculated as follows: 100% x (luminescence t = 72h / luminescence untreated,t=72h). This was fitted to the 10log compound concentration (conc) by a 4-parameter logistics curve: %-growth = bottom + (top – bottom) / (1+ 10(logIC50 – conc)*hill)), where hill is the Hill-coefficient, and bottom and top the asymptotic mini-mum and maximum cell growth that the compound allows in that assay.
All analysis were performed in the statistical software package R and visualized using GraphPad Prism version 10.0 .0

## CCCCCCCOc1ccc(OCC(=O)c2nc(C(=O)OC)cs2)cc1 [GK420]
SJCRH30
  IC50: 16.6 µM
SK-N-AS
  IC50: 14.2 µM
SK-N-FI
  IC50: 20 µM
SNU-C2B
  IC50: 19.3 µM
SR
  IC50: 12.5 µM
SUP-T1, SUP-T1
  IC50: 17.9 µM
SW48, SW48
  IC50: 22.6 µM
SW480, SW480
  IC50: 14.3 µM
SW948, SW948
  IC50: 21.1 µM
SW-620, SW620
  IC50: 20 µM
T98G
  IC50: 42.4 µM
T-24, T24
  IC50: 14.7 µM
TT
  IC50: 27.7 µM
U2OS, U-2 OS
  IC50: 8.01 µM
U-87 MG
  IC50: 20.3 µM
VA-ES-BJ
  IC50: 23 µM
Hs578T, breast
  pIC50: 4,834
J82, urinary_tract
  pIC50: 4,716
Jurkat E6.1, Log10 M -5
  raw signal, dose-response (Figure S7a): 18200 and 21347
Jurkat E6.1, Log10 M -5.5
  raw signal, dose-response (Figure S7a): 21213 and 30520
Jurkat E6.1, Log10 M -6.5
  raw signal, dose-response (Figure S7a): 2114520 and 2235427
Jurkat E6.1, Log10 M -7
  raw signal, dose-response (Figure S7a): 2341173 and 2551267
Jurkat E6.1, Log10 M -7.5
  raw signal, dose-response (Figure S7a): 2392960 and 2321813
Jurkat E6.1, Log10 M -8
  raw signal, dose-response (Figure S7a): 2356933 and 2578573
Jurkat, blood
  pIC50: 6,245
K562, blood
  pIC50: 4,814
K562, Log10 M -4
  raw signal, dose-response (Figure S7a): 74307 and 48600
K562, Log10 M -4.5
  raw signal, dose-response (Figure S7a): 1190933 and 1527307
K562, Log10 M -5
  raw signal, dose-response (Figure S7a): 13304880 and 13536973
K562, Log10 M -5.5
  raw signal, dose-response (Figure S7a): 15252080 and 16813307
KU812, blood
  pIC50: 5,039
KU812, Log10 M -4
  raw signal, dose-response (Figure S7a): 2867 and 5600
KU812, Log10 M -4.5
  raw signal, dose-response (Figure S7a): 66600 and 77573
KU812, Log10 M -5.5
  raw signal, dose-response (Figure S7a): 3841840 and 3310707
KU812, Log10 M -6
  raw signal, dose-response (Figure S7a): 3516360 and 3607827
KU812, Log10 M -6.5
  raw signal, dose-response (Figure S7a): 3576653 and 3459747
KU812, Log10 M -7
  raw signal, dose-response (Figure S7a): 3573240 and 3479493
KU812, Log10 M -7.5
  raw signal, dose-response (Figure S7a): 3396627 and 3395373
KU812, Log10 M -8
  raw signal, dose-response (Figure S7a): 3660107 and 3329680
LoVo, large_intestine
  pIC50: 4,781
MCF7, breast
  pIC50: 4,833
MG63, bone
  pIC50: 4,644
MIAPaCa2, pancreas
  pIC50: 4,884
MOLT-4, Log10 M -4
  raw signal, dose-response (Figure S7a): 6187 and 5813
MOLT-4, Log10 M -5
  raw signal, dose-response (Figure S7a): 64080 and 125733
MOLT-4, Log10 M -5.5
  raw signal, dose-response (Figure S7a): 4862747 and 5232987
MOLT-4, Log10 M -6
  raw signal, dose-response (Figure S7a): 6801747 and 6267067
MOLT-4, Log10 M -6.5
  raw signal, dose-response (Figure S7a): 7366227 and 6477733
MOLT-4, Log10 M -7
  raw signal, dose-response (Figure S7a): 6306707 and 6935720
MOLT-4, Log10 M -7.5
  raw signal, dose-response (Figure S7a): 6661907 and 6660467
MOLT-4, Log10 M -8
  raw signal, dose-response (Figure S7a): 6315747 and 6363187
MeWo, skin
  pIC50: 4,711
NCIH82, lung
  pIC50: 5,315
NCIH460, lung
  pIC50: 4,489
RPMI7951, skin
  pIC50: 4,852
RT4, urinary_tract
  pIC50: 4,477
SHP77, lung
  pIC50: 4,861
SKNAS, peripheral_nervous_system
  pIC50: 4,847
SKNFI, peripheral_nervous_system
  pIC50: 4,698
SR, Log10 M -4
  raw signal, dose-response (Figure S7a): 11267 and 10080
SR, Log10 M -4.5
  raw signal, dose-response (Figure S7a): 14987 and 22200
SR, Log10 M -5
  raw signal, dose-response (Figure S7a): 2171560 and 2105733
SR, Log10 M -5.5
  raw signal, dose-response (Figure S7a): 2501520 and 2976000
SR, Log10 M -6
  raw signal, dose-response (Figure S7a): 2547880 and 3067093
SR, Log10 M -6.5
  raw signal, dose-response (Figure S7a): 2848387 and 3116973
SR, Log10 M -7
  raw signal, dose-response (Figure S7a): 3165427 and 3131507
SR, Log10 M -7.5
  raw signal, dose-response (Figure S7a): 3036893 and 2296373
SR, Log10 M -8
  raw signal, dose-response (Figure S7a): 3222893 and 3197013
SUP-T1, Log10 M -4
  raw signal, dose-response (Figure S7a): 26587 and 37653
SUP-T1, Log10 M -5
  raw signal, dose-response (Figure S7a): 6935960 and 5931427
SUP-T1, Log10 M -5.5
  raw signal, dose-response (Figure S7a): 6473080 and 6695013
SUP-T1, Log10 M -6
  raw signal, dose-response (Figure S7a): 6511467 and 6816760
SUP-T1, Log10 M -6.5
  raw signal, dose-response (Figure S7a): 6737680 and 6611147
SUP-T1, Log10 M -7
  raw signal, dose-response (Figure S7a): 6237733 and 6274507
SUP-T1, Log10 M -7.5
  raw signal, dose-response (Figure S7a): 6362947 and 6848640
SUP-T1, Log10 M -8
  raw signal, dose-response (Figure S7a): 6336067 and 6341827
SUPT1, blood
  pIC50: 4,747
SW48, large_intestine
  pIC50: 4,646
SW480, large_intestine
  pIC50: 4,843
SW620, large_intestine
  pIC50: 4,698
SW948, large_intestine
  pIC50: 4,676
T24, urinary_tract
  pIC50: 4,833
T98G, central_nervous_system
  pIC50: 4,373
TT, thyroid
  pIC50: 4,558
U2OS, bone
  pIC50: 5,097
U87MG, central_nervous_system
  pIC50: 4,692
VAESBJ, soft_tissue
  pIC50: 4,638
